Reference: patent US20130190407A1, “CALCIUM RECEPTOR-ACTIVE MOLECULES” (NPS Pharmaceuticals, Inc., priority 1991, published 2013)

What was measured:
Assay type in all cases: cell-based
[1] = biological target: T1, bovine parathyroid cell calcium receptor (Bos taurus, UniProt P35384); experiment: Cl- current in Xenopus oocytes injected with BoPCaR 1
T1 construct: isolation of a single clone (BoPCaR 1) with a cDNA insert of 5.3 kb; expressed in transfected cells
T1 sequence (P35384 20-1085): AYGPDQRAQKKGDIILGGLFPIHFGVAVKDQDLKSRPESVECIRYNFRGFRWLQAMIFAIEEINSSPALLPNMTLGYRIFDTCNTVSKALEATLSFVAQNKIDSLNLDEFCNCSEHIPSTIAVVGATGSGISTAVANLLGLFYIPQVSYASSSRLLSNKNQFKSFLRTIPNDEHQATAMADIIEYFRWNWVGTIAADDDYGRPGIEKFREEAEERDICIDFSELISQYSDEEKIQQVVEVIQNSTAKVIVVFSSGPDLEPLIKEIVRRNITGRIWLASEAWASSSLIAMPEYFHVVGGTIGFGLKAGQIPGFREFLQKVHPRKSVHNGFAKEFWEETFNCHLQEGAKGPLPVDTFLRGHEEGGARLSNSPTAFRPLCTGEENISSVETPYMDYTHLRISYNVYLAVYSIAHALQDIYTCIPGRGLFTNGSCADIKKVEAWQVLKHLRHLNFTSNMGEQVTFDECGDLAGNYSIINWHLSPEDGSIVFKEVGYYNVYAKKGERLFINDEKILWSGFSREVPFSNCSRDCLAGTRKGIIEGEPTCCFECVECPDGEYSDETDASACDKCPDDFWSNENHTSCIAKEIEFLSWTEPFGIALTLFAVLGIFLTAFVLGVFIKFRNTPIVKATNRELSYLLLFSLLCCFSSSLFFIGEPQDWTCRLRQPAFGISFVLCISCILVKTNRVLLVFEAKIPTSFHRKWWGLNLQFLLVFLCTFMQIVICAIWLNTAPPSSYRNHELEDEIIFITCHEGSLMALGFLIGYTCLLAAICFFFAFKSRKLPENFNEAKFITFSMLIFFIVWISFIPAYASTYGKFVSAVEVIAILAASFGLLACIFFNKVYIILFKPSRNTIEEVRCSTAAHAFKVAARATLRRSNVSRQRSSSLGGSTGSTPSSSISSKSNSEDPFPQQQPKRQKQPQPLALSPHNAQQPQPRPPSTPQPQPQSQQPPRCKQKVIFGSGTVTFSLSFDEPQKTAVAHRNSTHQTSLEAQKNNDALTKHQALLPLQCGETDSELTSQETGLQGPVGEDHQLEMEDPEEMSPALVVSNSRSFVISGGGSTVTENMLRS
Experimental: Several pharmacological and biochemical criteria were used to identify this clone as encoding a bona fide bovine parathyroid Ca^2+ receptor. […] These responses increased markedly over a period of one to four days after injection of the eggs with cRNA prepared from the BoPCaR 1 cDNA. Furthermore, the ranges of the concentrations of the two cations eliciting this response were very similar to those shown previously to act on bovine parathyroid cells in vitro.
Xenopus oocytes were injected with BoPCaR 1, the 5.3 Kb cDNA encoding a bovine parathyroid cell calcium receptor as described in Example 25. After two to three days, Cl^− currents were examined in the oocytes using a two-electrode voltage clamp.
Xenopus oocytes were injected with BoPCaR 1 as described in Example 25. After two to three days, Cl^− currents were examined in the oocytes using two electrode voltage clamp.

[2] = biological target: T2, parathyroid cell calcium receptor (Bos taurus, UniProt P35384); experiment: Mobilization of intracellular Ca2+ ([Ca2+]i, fura-2) in bovine parathyroid cells; parameters: Parathyroid glands were obtained from freshly slaughtered calves (12-15 weeks old); endogenous in cells; host or cells: dissociated primary bovine (calf) parathyroid cells; details: Table 6; bovine parathyroid cells; read-out: EC50 PARATHYROID
T2 sequence (P35384 20-1085): T1 sequence (P35384 20-1085)
Experimental: This section describes procedures used to obtain and treat parathyroid cells from calves and humans. […] Human parathyroid glands, were obtained from patients undergoing surgical removal of parathyroid tissue for primary or uremic hyperparathyroidism (uremic HPT), and were treated similarly to bovine tissue.
Glands were trimmed of excess fat and connective tissue and then minced with fine scissors into cubes approximately 2-3 mm on a side. Dissociated parathyroid cells were prepared by collagenase digestion and then purified by centrifugation in Percoll buffer. The resultant parathyroid cell preparation was essentially devoid of red blood cells, adipocytes, and capillary tissue as assessed by phase contrast microscopy and Sudan black B staining. Dissociated and purified parathyroid cells were present as small clusters containing 5 to 20 cells.
The cells were then pelleted, resuspended in the same buffer, but lacking the ester, and incubated a further 15 minutes at 37° C. The cells were subsequently washed twice with PCB containing 0.5 mM CaCl2 and 0.5% BSA and maintained at room temperature (about 20° C.) Immediately before use, the cells were diluted five-fold with prewarmed 0.5 mM CaCl2-PCB to obtain a final BSA concentration of 0.1%. The concentration of cells in the cuvette used for fluorescence recording was 1−2×10^6/ml.
The fluorescence of indicator-loaded cells was measured at 37° C. in a spectrofluorimeter (Biomedical Instrumentation Group, University of Pennsylvania, Philadelphia, Pa.) equipped with a thermostated cuvette holder and magnetic stirrer using excitation and emission wavelengths of 340 and 510 nm, respectively. […] Leakage of dye is dependent on temperature and most occurs within the first 2 minutes after warming the cells in the cuvette. Dye leakage increases only very slowly thereafter. To correct the calibration for dye leakage, cells were placed in the cuvette and stirred at 37° C. for 2-3 minutes. The cell suspension was then removed, the cells pelleted, and the supernatant returned to a clean cuvette. […] This estimate was subtracted from the apparent Fmin.

[3] = biological target: T2, parathyroid cell calcium receptor; experiment: Cl- current in Xenopus oocytes injected with bovine parathyroid cell poly(A)+-mRNA; parameters: Whole pieces of gland were used to prepare mRNA that directs the expression of the calcium receptor in Xenopus oocytes; expressed in transfected cells; host or cells: Xenopus laevis oocytes injected with total poly(A)+ mRNA from bovine parathyroid glands; details: 100 μM
Experimental: (§1) Following incubation, an oocyte was placed into a 100-μl plastic chamber and superfused with MBS at a flow rate of 0.5 ml/min using a peristaltic pump. Test molecules or inorganic polycations were added by rapidly moving the tubing into different buffers. Recording and current-passing electrodes were constructed from thin-wall capillary tubing pulled to a resistance of 1-3 Mohms and filled with 3 M KCl. […] Currents were recorded directly onto a strip chart recorder.
Dissociated bovine parathyroid cells were used to further explore the mechanism of action of NPS R-467 at the receptor level. […] It does, however, elicit responses in parathyroid cells and in oocytes when a small amount of extracellular Ca^2+ is present.

[4] = biological target: T3, osteoclast calcium receptor (Rattus norvegicus, UniProt P48442); experiment: [Ca2+]i (indo-1) in single rat osteoclasts
T3 sequence (P48442 20-1079): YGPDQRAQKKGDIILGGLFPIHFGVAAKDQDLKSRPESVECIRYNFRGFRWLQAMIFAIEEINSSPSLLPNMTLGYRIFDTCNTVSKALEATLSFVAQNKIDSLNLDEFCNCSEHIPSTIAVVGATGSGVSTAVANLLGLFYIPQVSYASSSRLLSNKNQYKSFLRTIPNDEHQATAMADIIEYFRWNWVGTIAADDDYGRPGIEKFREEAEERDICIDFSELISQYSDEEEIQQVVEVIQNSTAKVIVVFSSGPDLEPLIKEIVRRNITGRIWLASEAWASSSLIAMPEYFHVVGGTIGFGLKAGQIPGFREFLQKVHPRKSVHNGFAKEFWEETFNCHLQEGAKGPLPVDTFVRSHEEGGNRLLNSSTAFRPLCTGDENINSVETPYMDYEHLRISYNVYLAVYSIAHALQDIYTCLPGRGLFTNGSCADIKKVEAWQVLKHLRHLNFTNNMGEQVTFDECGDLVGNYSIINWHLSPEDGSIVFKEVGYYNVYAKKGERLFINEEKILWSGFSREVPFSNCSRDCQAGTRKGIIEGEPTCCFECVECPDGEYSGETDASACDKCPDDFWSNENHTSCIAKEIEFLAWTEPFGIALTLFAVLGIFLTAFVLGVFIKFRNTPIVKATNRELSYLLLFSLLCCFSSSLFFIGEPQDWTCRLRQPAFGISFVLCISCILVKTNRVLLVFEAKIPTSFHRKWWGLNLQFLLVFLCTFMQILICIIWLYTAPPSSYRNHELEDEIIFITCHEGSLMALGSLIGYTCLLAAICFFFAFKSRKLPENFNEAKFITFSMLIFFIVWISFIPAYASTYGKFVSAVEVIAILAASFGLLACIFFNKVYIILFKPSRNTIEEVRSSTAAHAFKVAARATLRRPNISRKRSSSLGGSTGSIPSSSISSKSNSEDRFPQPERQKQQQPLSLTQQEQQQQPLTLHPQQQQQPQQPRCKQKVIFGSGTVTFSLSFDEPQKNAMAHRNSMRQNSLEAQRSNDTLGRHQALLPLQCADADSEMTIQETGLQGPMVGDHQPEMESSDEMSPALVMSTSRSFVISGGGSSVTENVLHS

calcium receptor = biological target: T4, calcium receptor (Homo sapiens, UniProt P41180); experiment: Cl- current in Xenopus oocytes injected with human parathyroid cell mRNA; details: hexacyclen 135 μM, neomycin 100 μM, NPS 382 5 mM
T4 construct: poly(A)^+-enriched mRNA from human parathyroid tissue (hyperplastic glands from a case of secondary HPT); expressed in transfected cells; host or cells: Xenopus laevis oocytes injected with poly(A)+ mRNA from hyperplastic human parathyroid glands
T4 sequence (P41180 20-1078): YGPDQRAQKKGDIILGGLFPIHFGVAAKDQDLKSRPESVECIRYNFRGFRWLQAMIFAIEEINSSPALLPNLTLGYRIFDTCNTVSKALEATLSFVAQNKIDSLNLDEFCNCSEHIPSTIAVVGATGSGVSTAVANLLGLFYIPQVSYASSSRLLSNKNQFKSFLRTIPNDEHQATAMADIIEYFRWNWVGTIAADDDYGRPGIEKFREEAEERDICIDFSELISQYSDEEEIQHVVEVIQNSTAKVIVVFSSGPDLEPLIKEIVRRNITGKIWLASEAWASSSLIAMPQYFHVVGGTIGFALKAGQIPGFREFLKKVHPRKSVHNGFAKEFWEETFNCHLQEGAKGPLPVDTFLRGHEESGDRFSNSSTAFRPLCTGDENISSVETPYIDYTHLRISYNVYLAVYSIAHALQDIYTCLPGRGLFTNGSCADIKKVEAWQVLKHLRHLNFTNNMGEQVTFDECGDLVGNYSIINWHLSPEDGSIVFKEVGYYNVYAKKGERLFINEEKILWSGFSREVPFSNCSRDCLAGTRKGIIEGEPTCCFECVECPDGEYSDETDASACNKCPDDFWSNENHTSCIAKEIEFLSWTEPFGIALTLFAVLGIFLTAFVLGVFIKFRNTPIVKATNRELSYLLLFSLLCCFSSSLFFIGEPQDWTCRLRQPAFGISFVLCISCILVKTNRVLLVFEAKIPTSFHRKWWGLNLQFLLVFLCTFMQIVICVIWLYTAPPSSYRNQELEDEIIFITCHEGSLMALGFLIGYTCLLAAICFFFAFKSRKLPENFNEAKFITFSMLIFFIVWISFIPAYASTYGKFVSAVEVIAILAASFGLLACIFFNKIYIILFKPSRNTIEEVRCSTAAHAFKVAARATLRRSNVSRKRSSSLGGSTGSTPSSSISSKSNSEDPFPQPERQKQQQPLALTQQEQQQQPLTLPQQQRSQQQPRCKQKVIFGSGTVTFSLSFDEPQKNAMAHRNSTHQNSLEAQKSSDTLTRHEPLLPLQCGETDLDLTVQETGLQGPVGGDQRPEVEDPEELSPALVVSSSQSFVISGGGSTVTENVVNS
Experimental: Oocytes were injected with poly(A)^+-enriched mRNA from human parathyroid tissue (hyperplastic glands from a case of secondary HPT).
as §1
Using this screen allows one to test for an action directly on the calcium receptor. Oocytes expressing the calcium receptor also responded to several molecules active on intact parathyroid cells when screened as follows. […] This offers rather compelling evidence showing that these molecules act on the calcium receptor or on some other protein intimately associated with its function.

Bovine parathyroid cells = details: 10 μM isoproterenol 15 min; no pertussis toxin; 2.0 mM Ca2+, 200 μM spermine, 30 μM neomycin B, 2 μg/ml protamine; mean ± SEM
Experimental: This section describes measuring cyclic AMP levels. Cells were incubated as above for PTH secretion studies and at the end of the incubation, a 0.15-ml sample was taken and transferred to 0.85 ml of hot (70° C.) water and heated at this temperature for 5-10 minutes. The tubes were subsequently frozen and thawed several times and the cellular debris sedimented by centrifugation. Portions of the supernatant were acetylated and cyclic AMP concentrations determined by radioimmunoassay.
Bovine parathyroid cells were cultured for 16 hours with or without 100 ng/ml pertussis toxin. […] Each value is the mean±SEM of three experiments.

**Q.** COc1cccc([C@H](C)NCCCc2ccccc2Cl)c1 [NPS S-568] was tested. Which “concentration eliciting Cl- current responses” value [1] did it give?
**A.** Its value is 100 µM.

**Q.** How did the EC50 [2] turn out when CC(NCCC(c1ccccc1)c1ccccc1)c1ccccc1 (racemic) [Fendiline, fendiline] was run?
**A.** The EC50 was 15 µM.

**Q.** And the Cl- current [3]?
**A.** Its Cl- current is “elicits oscillatory increases in Cl^− current”.

**Q.** For NCCCCNCCCN [Spermidine, spermidine], which “compounds that caused any large increase in [Ca2+]i” value [4] is on record?
**A.** Its value is “none”.

**Q.** For NCCCN(CCCN)CCCNCCCCNCCCN(CCCN)CCCN [NPS 382, N^1, N^1, N^5, N^14, N^14-tetrakis-(3-aminopropyl)spermine], which “mobilization of intracellular Ca2+ in oocytes” value (calcium receptor) is on record?
**A.** The value was “effective”.

**Q.** For NCCCNCCCCNCCCN [Spermine, spermine], which “cyclic AMP (% of control), control” value (Bovine parathyroid cells) is on record?
**A.** The value was 23 ± 5 % of control.

**Q.** With NCCCNCCCCNCCCNCCCN(O)CCCNC(=O)Cc1c[nH]c2ccccc12 [NPS 017, Agatoxin 489] as the compound, how does the Cl- current ([1]; 1 mM extracellular Ca2+) read?
**A.** Its Cl- current is “oscillatory increases in the Cl^− current”.

**Q.** What about the “EC50 OSTEOCLAST” value ([4]; Table 6, rat osteoclasts, indo-1) of the same compound?
**A.** Its value is “inactive”.
